We go through 13 compounds from patent US9744222B2, “Peptide for vaccine” (Circassia Limited, priority 2007, dated 2017).

SMILES strings stand for the structures. Where a SMILES comes first, the peptide text is derived from it.

The series can be described thus: Solubility pre-screen of peptides. The note with it: pre-screened for solubility in an aqueous, acidic milieu; YES/NO.
Procedure: Methods The assay employed is a competitive MHC class II binding assay, wherein each peptide is analysed for its ability to displace a known control binder from each of the human MHC class II allotypes investigated.
Also shown is the solubility status of the peptide at the highest concentrations in the aqueous solution of the binding assay. The value illustrates the lowest concentration at which an insoluble white precipitate is seen.
Regarding `CC[C@H](C)[C@H](NC(=O)[C@H](Cc1ccc(O)cc1)NC(=O)[C@@H](N)CCC(=O)O)C(=O)N[C@@H](CCC(N)=O)C(=O)N[C@@H](Cc1c[nH]cn1)C(=O)N[C@@H](CC(N)=O)C(=O)NCC(=O)N[C@H](C(=O)N[C@H](C(=O)N[C@@H](CCC(N)=O)C(=O)N[C@@H](CCC(=O)O)C(=O)N[C@@H](CO)C(=O)N[C@@H](Cc1ccc(O)cc1)C(=O)O)C(C)C)C(C)C` [HDM05] (H-EYIQHNGVVQESY-OH; N-terminus and C-terminus assumed), the Solubility test entry is “YES”.
For the compound `CC(C)[C@H](NC(=O)[C@H](C)NC(=O)[C@@H](N)CCC(=O)O)C(=O)N[C@@H](Cc1ccccc1)C(=O)N[C@@H](CCC(=O)O)C(=O)N[C@@H](C)C(=O)N[C@@H](CC(N)=O)C(=O)N[C@@H](CCC(N)=O)C(=O)N[C@@H](CC(N)=O)C(=O)N[C@H](C(=O)N[C@@H](CCCCN)C(=O)N[C@H](C(=O)N[C@@H](C)C(=O)N[C@@H](CCCCN)C(=O)O)[C@@H](C)O)[C@@H](C)O` [HDM22A] (H-EAVFEANQNTKTAK-OH; N-terminus and C-terminus assumed), the Solubility test entry is listed as “YES”.
As to `CC[C@H](C)[C@H](NC(=O)[C@H](CCC(=O)O)NC(=O)[C@@H](NC(=O)[C@H](CCCCN)NC(=O)[C@H](C)N)[C@@H](C)CC)C(=O)N[C@@H](CCCCN)C(=O)N[C@@H](C)C(=O)N[C@@H](CO)C(=O)N[C@@H](CC(C)C)C(=O)N[C@@H](CC(=O)O)C(=O)NCC(=O)N[C@@H](CC(C)C)C(=O)N[C@@H](CCC(=O)O)C(=O)O` [HDM27] (H-AKIEIKASLDGLE-OH; N-terminus and C-terminus assumed), the Solubility test result is on record as “YES”.
As for `CC(C)C[C@H](NC(=O)[C@H](CCC(N)=O)NC(=O)[C@H](Cc1ccccc1)NC(=O)[C@@H]1CCCN1C(=O)[C@@H](N)CCCCN)C(=O)N[C@@H](CCC(=O)O)C(=O)N[C@@H](C)C(=O)N[C@H](C(=O)N[C@@H](Cc1ccccc1)C(=O)N[C@@H](CCC(=O)O)C(=O)N[C@@H](C)C(=O)N[C@@H](CC(N)=O)C(=O)N[C@@H](CCC(N)=O)C(=O)N[C@@H](CC(N)=O)C(=O)N[C@H](C(=O)N[C@@H](CCCCN)C(=O)O)[C@@H](C)O)C(C)C` [HDM21A] (H-KPFQLEAVFEANQNTK-OH; N-terminus and C-terminus assumed), the entry is “YES”.
`CC[C@H](C)[C@H](NC(=O)CNC(=O)[C@@H](NC(=O)[C@H](Cc1c[nH]cn1)NC(=O)[C@H](CCCNC(=N)N)NC(=O)[C@H](CCC(=O)O)NC(=O)[C@H](Cc1ccccc1)NC(=O)[C@H](CCCCN)NC(=O)[C@@H](N)CC(=O)O)[C@@H](C)CC)C(=O)N[C@H](C(=O)N[C@@H](CC(=O)O)C(=O)N[C@@H](CC(C)C)C(=O)N[C@@H](CCCCN)C(=O)O)[C@@H](C)CC` [HDM30] (H-DKFERHIGIIDLK-OH; N-terminus and C-terminus assumed): the Solubility test entry was “YES”.
In the case of `CC(C)C[C@H](NC(=O)[C@H](CC(=O)O)NC(=O)[C@H](CC(C)C)NC(=O)[C@H](CCC(=O)O)NC(=O)[C@H](CO)NC(=O)[C@@H]1CCCN1C(=O)[C@@H](NC(=O)[C@H](CC(N)=O)NC(=O)[C@@H](NC(=O)[C@H](CO)NC(=O)[C@@H](N)CC(N)=O)C(C)C)C(C)C)C(=O)N[C@@H](CCCNC(=N)N)C(=O)N[C@@H](CO)C(=O)N[C@@H](CC(C)C)C(=O)N[C@@H](CCCNC(=N)N)C(=O)N[C@H](C(=O)O)[C@@H](C)O` [HDM17] (H-NSVNVPSELDLRSLRT-OH; N-terminus and C-terminus assumed), the Solubility test entry is “YES”.
Regarding `CC(C)[C@H](NC(=O)CNC(=O)[C@H](CC(=O)O)NC(=O)[C@H](CCC(=O)O)NC(=O)[C@H](CO)NC(=O)[C@H](CCCCN)NC(=O)[C@@H](NC(=O)[C@H](CC(N)=O)NC(=O)[C@H](C)N)C(C)C)C(=O)N[C@H](C(=O)N[C@@H](CCCCN)C(=O)N[C@@H](C)C(=O)N[C@@H](Cc1c[nH]cn1)C(=O)O)C(C)C` [HDM37] (H-ANVKSEDGVVKAH-OH; N-terminus and C-terminus assumed), the Solubility test entry was “YES”.
Take `CC[C@H](C)[C@H](NC(=O)[C@H](C)NC(=O)[C@H](C)NC(=O)[C@@H](NC(=O)[C@H](C)NC(=O)[C@H](CCC(=O)O)NC(=O)[C@H](CC(=O)O)NC(=O)[C@@H](NC(=O)[C@H](C)NC(=O)[C@@H](N)CCCCN)C(C)C)C(C)C)C(=O)N[C@@H](CCC(=O)O)C(=O)N[C@@H](CCCCN)C(=O)N[C@@H](CO)C(=O)O` [HDM28] (H-KAVDEAVAAIEKS-OH; N-terminus and C-terminus assumed): the Solubility test result was “YES”.
Turning to `CSCC[C@H](NC(=O)[C@H](CCC(N)=O)NC(=O)[C@H](CCCCN)NC(=O)[C@H](CC(C)C)NC(=O)CNC(=O)[C@@H](N)CCCNC(=N)N)C(=O)N[C@@H](CCCCN)C(=O)N[C@@H](CCCNC(=N)N)C(=O)N[C@H](C(=O)NCC(=O)N[C@@H](CC(=O)O)C(=O)N[C@@H](C)C(=O)N[C@@H](CC(N)=O)C(=O)O)C(C)C` [HDM35] (H-RGLKQMKRVGDAN-OH; N-terminus and C-terminus assumed), the Solubility test entry was “YES”.
In the case of `CSCC[C@H](NC(=O)[C@@H]1CCCN1C(=O)[C@H](CC(=O)O)NC(=O)[C@H](Cc1ccccc1)NC(=O)[C@@H](NC(=O)[C@@H](N)CCC(=O)O)[C@@H](C)O)C(=O)N[C@@H](CCCCN)C(=O)N[C@H](C(=O)N1CCC[C@H]1C(=O)N[C@@H](CC(=O)O)C(=O)N[C@@H](Cc1c[nH]cn1)C(=O)N[C@@H](CO)C(=O)N[C@@H](CC(=O)O)C(=O)N[C@@H](CCCCN)C(=O)O)C(C)C` [HDM29A] (H-ETFDPMKVPDHSDK-OH; N-terminus and C-terminus assumed), the Solubility test entry is listed as “YES”.
Then `CC[C@H](C)[C@H](NC(=O)[C@@H](NC(=O)[C@H](C)NC(=O)[C@@H](NC(=O)[C@H](C)NC(=O)[C@H](CO)NC(=O)[C@H](Cc1c[nH]cn1)NC(=O)[C@@H](NC(=O)[C@H](CCC(N)=O)NC(=O)[C@H](C)NC(=O)[C@H](CC(C)C)NC(=O)[C@H](C)NC(=O)[C@H](CCC(=O)O)NC(=O)[C@@H](N)CCCNC(=N)N)[C@@H](C)O)[C@@H](C)CC)C(C)C)C(=O)O` [HDM09A] (H-REALAQTHSAIAVI-OH; N-terminus and C-terminus assumed), with “YES”.
Then `CC(C)C[C@H](NC(=O)[C@H](CCC(=O)O)NC(=O)[C@H](CCCCN)NC(=O)[C@H](CCCCN)NC(=O)[C@H](Cc1ccccc1)NC(=O)[C@H](C)NC(=O)[C@@H]1CCCN1C(=O)[C@H](C)NC(=O)[C@H](CC(C)C)NC(=O)[C@@H](NC(=O)[C@@H](N)CCCCN)C(C)C)C(=O)N[C@@H](CCC(=O)O)C(=O)N[C@@H](CCCNC(=N)N)C(=O)O` [HDM50] (H-KVLAPAFKKELER-OH; N-terminus and C-terminus assumed), with “YES”; and `CC[C@H](C)[C@H](NC(=O)[C@H](C)NC(=O)[C@@H](N)[C@@H](C)O)C(=O)N[C@@H](Cc1ccccc1)C(=O)N[C@@H](CCC(N)=O)C(=O)N[C@@H](CC(=O)O)C(=O)N[C@H](C(=O)N[C@H](C(=O)N[C@@H](CCCNC(=N)N)C(=O)N[C@@H](C)C(=O)N[C@@H](CCC(=O)O)C(=O)N[C@@H](CCSC)C(=O)N[C@H](C(=O)N[C@@H](CCCCN)C(=O)O)[C@@H](C)O)C(C)C)[C@@H](C)O` [HDM48] (H-TAIFQDTVRAEMTK-OH; N-terminus and C-terminus assumed), with “YES”.
